The source of these data is article PMC10428001 (Cancer research, 2022).

As usually defined, the IC50 is the point on the concentration scale where inhibition reaches its midpoint.

Experiment [1] relates to Ba/F3 cells HER2 V777L. In words: Ba/F3 cell viability. Format: cell-based. To be noted: read-out: IC50 (average ± SD).
Experiment [2] relates to Ba/F3 cells HER2 P780_Y781insGSP. In words: Ba/F3 cell viability. In kind it is cell-based. To be noted: read-out: IC50 (average ± SD).
Experiment [3] deals with Ba/F3 cells WT EGFR (+ rhEGF). In words: Ba/F3 cell viability. Format: cell-based. The note with it: read-out: IC50 (average ± SD).
The subject of experiment [4] is WT EGFR vs all HER2 mutants Ba/F3 cells. In words: Selectivity index from Ba/F3 IC50 ratios. To be noted: average over HER2 mutants. In kind it is cell-based.
The test system of experiment [5] is Ba/F3 cells HER2 G776delinsVC. In words: Ba/F3 cell viability. In kind it is cell-based. To be noted: read-out: IC50 (average ± SD).
Experiment [6] concerns Ba/F3 cells HER2 L755S. In words: Ba/F3 cell viability. In kind it is cell-based. The note with it: read-out: IC50 (average ± SD).
Experiment [7] concerns Ba/F3 cells HER2 V862I. In words: Ba/F3 cell viability. In kind it is cell-based. To be noted: read-out: IC50 (average ± SD).
Experiment [8] deals with Ba/F3 cells HER2 amplification. In words: Ba/F3 cell viability. Format: cell-based. The note with it: read-out: IC50 (average ± SD).
Experiment [9] has as its system Ba/F3 cells HER2 A775_G776insYVMA. In words: Ba/F3 cell viability. Format: cell-based. The note with it: read-out: IC50 (average ± SD).
Experiment [10] concerns Ba/F3 cells HER2 S310F. In words: Ba/F3 cell viability. In kind it is cell-based. To be noted: read-out: IC50 (average ± SD).
The subject of experiment [11] is Ba/F3 cells HER2 M774delinsWLV. In words: Ba/F3 cell viability. In kind it is cell-based. The note with it: read-out: IC50 (average ± SD).
The test system of experiment [12] is A-431. In words: Cancer cell viability. In kind it is cell-based, human. The note with it: read-out: IC50 (average ± SD); A-431, epidermoid, EGFR amp, 72 h.
Experiment [13] has as its system Calu-3. In words: Cancer cell viability. Format: cell-based. The note with it: Homo sapiens, Calu-3, 72 h, read-out: IC50 (average ± SD).
Experiment [14] deals with BT-474. In words: Cancer cell viability. In kind it is cell-based, human. The note with it: Homo sapiens, BT-474, 72 h, read-out: IC50 (average ± SD).
The subject of experiment [15] is SKBR3. In words: Cancer cell viability. In kind it is cell-based, human. To be noted: Homo sapiens, SK-BR-3, 72 h, read-out: IC50 (average ± SD).
Experiment [16] has as its system MCF7. In words: Cancer cell viability. Format: cell-based, human. To be noted: Homo sapiens, MCF7, 72 h, read-out: IC50 (average ± SD).
In experiment [17] the test system is H1819. In words: Cancer cell viability. The note with it: Homo sapiens, NCI-H1819, 72 h, read-out: IC50 (average ± SD). Format: cell-based.
Experiment [18] has as its system H1781. In words: Cancer cell viability. Format: cell-based, human. To be noted: Homo sapiens, NCI-H1781, 72 h, read-out: IC50 (average ± SD).
For experiment [19], the system named is DFCI 429. In words: Patient-derived cancer cell viability. Format: cell-based, human. To be noted: Homo sapiens, 72 h, read-out: IC50 (average ± SD).
The subject of experiment [20] is NCI-N87. In words: Cancer cell viability. In kind it is cell-based, human. To be noted: Homo sapiens, NCI-N87, 72 h, read-out: IC50 (average ± SD).
The subject of experiment [21] is Ba/F3 cells HER2 755_757LREdelinsRP. In words: Ba/F3 cell viability. The note with it: Mus musculus, BaF3, 72 h, read-out: IC50 (average ± SD). In kind it is cell-based.
Experiment [22] has as its system HER2 mutant lung cancer. The note with it: cited from earlier work.
Experiment [23] has as its system Calu-3 tumors. In words: Calu-3 xenograft efficacy. Format: in vivo. To be noted: Calu-3 in NCr nude mice, oral, 39 days; JBJ-08-178-01 at 50 mg/kg BID.

Molecules are shown by their SMILES. Like-named read-outs stand apart in the source and are kept apart here.

`C=CC(=O)N1CCC[C@@H](n2nc(C(=O)Nc3ccc(CC(=O)N(C)C)c(C)c3C)c3c(N)ncnc32)C1` [TAS0728]: the IC50 in experiment [1] (Ba/F3 HER2 V777L, 3 days) came to 19.2 ± 12.2 nM; in experiment [2] (Ba/F3 HER2 P780_Y781insGSP, 3 days) it was 80.1 ± 27 nM; in experiment [3] (Ba/F3 WT EGFR (+ rhEGF 10 ng/mL), 3 days), 399 ± 77.3 nM; in experiment [5] (Ba/F3 HER2 G776delinsVC, 3 days), 626 ± 130 nM; in experiment [6] (Ba/F3 HER2 L755S, 3 days) it was 3760 ± 3080 nM; in experiment [7] (Ba/F3 HER2 V862I, 3 days) it was 1320 ± 506 nM. Also, the IC50 in experiment [8] (Ba/F3 HER2 amplification, 3 days) amounted to 288 ± 20.6 nM; in experiment [9] (Ba/F3 HER2 A775_G776insYVMA, 3 days), 256 ± 175 nM; in experiment [10] (Ba/F3 HER2 S310F, 3 days) it was 238 ± 95 nM; in experiment [11] (Ba/F3 HER2 M774delinsWLV, 3 days), 894 ± 509 nM. For the same molecule, in experiment [4], the “Selectivity index (IC50 ratio = WT EGFR ÷ all HER2 mutants)” value came out at 0.48.

On to `CN(C)C/C=C/C(=O)Nc1cc2c(Nc3ccc(F)c(Cl)c3)ncnc2cc1O[C@H]1CCOC1` [afatinib], for which the IC50 is 3.13 ± 0.21 nM in [1] (Mus musculus, BaF3, 72 h); 5.17 ± 2.32 nM in [2] (Mus musculus, BaF3, 72 h); 73.9 ± 60.9 nM in experiment [12]; 162 ± 110 nM in [13]; 6.89 ± 6.66 nM in [5] (Mus musculus, BaF3, 72 h); 175 ± 136 nM in experiment [14]. Further, the IC50 in experiment [6] (Mus musculus, BaF3, 72 h) was 83.2 ± 35.7 nM; in [15], 117 ± 105 nM; in experiment [16], 1970 nM; in experiment [17] it was 29.5 ± 19.5 nM; in experiment [18], 169 ± 84.6 nM; in experiment [7] (Mus musculus, BaF3, 72 h) it was 22.1 ± 10.9 nM. For the same molecule, the IC50 in [19] stood at 163 ± 153 nM; in experiment [8] (Mus musculus, BaF3, 72 h) it was 2.75 ± 2.89 nM; in experiment [9] (Mus musculus, BaF3, 72 h), 2.96 ± 1.29 nM; in experiment [10] (Mus musculus, BaF3, 72 h), 14.1 ± 20.6 nM; in [20] it was 1.7 ± 0.2 nM; in [21] it was 1.79 ± 1.39 nM. The IC50 in experiment [11] (Mus musculus, BaF3, 72 h) was determined as 8.75 ± 3.74 nM.

With `COc1cc2ncnc(Nc3ccc(F)c(Cl)c3)c2cc1NC(=O)/C=C/CN1CCCCC1` [dacomitinib], in [22] (phase II trial, patients with lung cancer harboring HER2 exon 20 mutations ref 34), the overall response rate was 12%.

In the case of `CS(=O)(=O)CCNCc1ccc(-c2ccc3ncnc(Nc4ccc(OCc5cccc(F)c5)c(Cl)c4)c3c2)o1` [lapatinib], the IC50 was found to be 13.1 ± 5.79 nM in [1] (Mus musculus, BaF3, 72 h); 210 ± 56 nM in [2] (Mus musculus, BaF3, 72 h); 302 ± 64.8 nM in experiment [3] (Mus musculus, BaF3, 72 h); 248 ± 220 nM in experiment [13]; 65.3 ± 49.7 nM in [5] (Mus musculus, BaF3, 72 h); 3780 nM in experiment [14]. Besides, the half-inhibitory concentration (IC50) in experiment [6] (Mus musculus, BaF3, 72 h) turned out to be 845 ± 381 nM; in [15], 5390 nM; in [16], 6790 nM; in [17], 341 ± 171 nM; in experiment [18], 2420 nM; in experiment [7] (Mus musculus, BaF3, 72 h), 336 ± 74.5 nM. The IC50 amounted to 177 ± 88.6 nM in experiment [8] (Mus musculus, BaF3, 72 h); 202 ± 70.2 nM in experiment [9] (Mus musculus, BaF3, 72 h); 530 ± 407 nM in experiment [10] (Mus musculus, BaF3, 72 h); 16.3 ± 6.6 nM in [20]; 130 ± 18 nM in [21]; 621 ± 333 nM in experiment [11] (Mus musculus, BaF3, 72 h).

`CCOc1cc2ncc(C#N)c(Nc3ccc(OCc4ccccn4)c(Cl)c3)c2cc1NC(=O)/C=C/CN(C)C` [neratinib]: the IC50 stood at 2.66 ± 0.48 nM in experiment [1] (Mus musculus, BaF3, 72 h); 4.96 ± 2.31 nM in [2] (Mus musculus, BaF3, 72 h); 13.5 ± 6.52 nM in experiment [3] (Mus musculus, BaF3, 72 h); 57.9 ± 39.6 nM in [13]; 7.4 ± 4.64 nM in experiment [5] (Mus musculus, BaF3, 72 h); 48 ± 10 nM in experiment [14]. The IC50 in [6] (Mus musculus, BaF3, 72 h) amounted to 112 ± 69.7 nM; in [15] it was 68.4 ± 65.5 nM; in experiment [16], 1280 nM; in experiment [17], 50.8 ± 14.1 nM; in [18], 296 ± 331 nM; in [7] (Mus musculus, BaF3, 72 h), 8.64 ± 3.81 nM. Further, the IC50 in [19] was 51.9 ± 45.8 nM; in experiment [8] (Mus musculus, BaF3, 72 h), 5.64 ± 3.72 nM; in experiment [9] (Mus musculus, BaF3, 72 h), 5.78 ± 2.09 nM; in experiment [10] (Mus musculus, BaF3, 72 h) it was 49.1 ± 64 nM; in [20] it was 1.1 ± 0.1 nM; in experiment [21] it was 5.41 ± 4.54 nM. The half-inhibitory concentration (IC50) in experiment [11] (Mus musculus, BaF3, 72 h) amounted to 16 ± 11.7 nM. In addition, in [22] (patients with HER2 mutant NSCLC, clinical trial ref 35), the “patients with objective response” value was “one out of 26”.

As for `C=CC(=O)N1CCC(Oc2cc3c(Nc4ccc(Cl)c(Cl)c4F)ncnc3cc2OC)CC1` [poziotinib], the IC50 in experiment [1] (Mus musculus, BaF3, 72 h) worked out at 2.43 ± 0.77 nM; in experiment [2] (Mus musculus, BaF3, 72 h) it was 1.28 ± 1.12 nM; in experiment [3] (Mus musculus, BaF3, 72 h), 1.41 ± 0.56 nM; in [12], 59.9 ± 46.1 nM; in experiment [13], 4.7 ± 2 nM; in experiment [5] (Mus musculus, BaF3, 72 h), 1.17 ± 0.86 nM. Also, the IC50 in experiment [14] was determined as 368 ± 414 nM; in experiment [6] (Mus musculus, BaF3, 72 h), 523 ± 440 nM; in experiment [15] it was 929 nM; in experiment [16] it was 5940 nM; in experiment [17], 75.5 ± 28.8 nM; in experiment [18], 197 ± 147 nM. Further, the IC50 came out at 29.3 ± 43 nM in [7] (Mus musculus, BaF3, 72 h); 744 ± 747 nM in experiment [19]; 1.08 ± 1.04 nM in experiment [8] (Mus musculus, BaF3, 72 h); 1.05 ± 0.67 nM in [9] (Mus musculus, BaF3, 72 h); 73.5 ± 41.1 nM in [10] (Mus musculus, BaF3, 72 h); 0.7 nM in experiment [20]. Further, the IC50 in [21] worked out at 0.95 ± 0.94 nM; in experiment [11] (Mus musculus, BaF3, 72 h), 3.45 ± 2.45 nM.

On to `Cc1cc(Nc2ncnc3ccc(NC4=NC(C)(C)CO4)cc23)ccc1Oc1ccn2ncnc2c1` [tucatinib], for which the tumor growth result in [23] is listed as “less efficacious than other covalent inhibitors”. The IC50 in experiment [1] (Mus musculus, BaF3, 72 h) turned out to be 7.2 ± 0.57 nM; in experiment [2] (Mus musculus, BaF3, 72 h) it was 131 ± 37.3 nM; in [3] (Mus musculus, BaF3, 72 h), 5180 ± 2520 nM; in [13], 1900 nM; in experiment [5] (Mus musculus, BaF3, 72 h) it was 97.8 ± 43.3 nM; in [14], 1730 nM. In addition, the IC50 in experiment [6] (Mus musculus, BaF3, 72 h) came out at 2090 ± 981 nM; in experiment [15] it was 840 ± 918 nM; in experiment [16] it was 11300 nM; in experiment [17] it was 521 ± 551 nM; in experiment [18] it was 3910 nM; in experiment [7] (Mus musculus, BaF3, 72 h), 1940 ± 1110 nM. The 50% inhibitory concentration (IC50) in [19] is 2790 nM; in experiment [8] (Mus musculus, BaF3, 72 h), 126 ± 81.8 nM; in experiment [9] (Mus musculus, BaF3, 72 h) it was 269 ± 88.1 nM; in experiment [10] (Mus musculus, BaF3, 72 h), 371 ± 168 nM; in [20] it was 16.2 ± 2.4 nM; in experiment [21] it was 102 ± 23.6 nM. In addition, in [11] (Mus musculus, BaF3, 72 h), the 50% inhibitory concentration (IC50) amounted to 683 ± 288 nM. In addition, the “Selectivity index (IC50 ratio = WT EGFR ÷ all HER2 mutants)” value in [4] is 8.91.
